Data: US20090005443A1, “Treatment of Depression” (priority 2007, published 2009)
Several values for one entry are separate records, joined by “and”; a condition that tells them apart may be missing. Equal entries are not always repeated.

Test system: Patients with MDD
Type: in vivo
Conditions: for Ham-D change: baseline to end value, oral tablets, no visit qualifier given; for Ham-D change / Ham-D change (by penultimate visit): individual MDD patient; for Ham-D change (by penultimate visit): baseline to value by penultimate visit; for Reduction in patient depression, measured using the Hamilton-D rating scale: the five patients who completed the trial protocol (three tramadol, two amitriptyline)
Experimental: A Single Centre, Open Labelled, Comparative, Parallel Pilot Study to Evaluate the Antidepressant Activity of Tramadol in the Treatment of Major Depressive Disorder (MDD).
The investigational drug was administered in tablet form orally, with an initial dose of 200 mg daily for 2 weeks and then maintenance at 200-400 mg daily for a further 14 weeks.
Patients with MDD aged between 18 to 65 years old.
To evaluate the antidepressant activity of tramadol by comparing the change in Ham-D scores of patients with MDD when treated with tramadol as compared with amitriptyline.
Remission is defined as ≦7 on the 17 item Ham-D scale upon completion of week 8 of trial. Response is defined as ≧50% decrease from baseline depression on 17 item Ham-D score upon completion of week 8 of trial. Partial response is defined as <50% but ≧25% decrease from base line depression on 17 item Ham-D Scale. Recovery is defined as at least 8 weeks free from depression, as diagnosed according to DSM-IV-TR criteria.
This was a comparative, single centre, parallel, open-label randomized study in which half of the study population will receive tramadol and the other half will receive amitriptyline.
The primary endpoint is the treatment response of each study subject, as measured on the Ham-D 17-item scale (Hamilton Mass.). Study entry requires a Ham-D score of ≧15. To achieve remission, a cut-off score of ≦7 will be applied. Response will be defined as a ≧50% drop in score and a partial response will be defined as <50% but ≧25% drop in score. Recovery will be defined as at least 8 weeks free of major depression, as diagnosed according to DSM-IV-TR criteria.
In an open-label study comparing the treatment of Major Depressive Disorder with tramadol and amitriptyline, sixteen patients have been enrolled and five have completed the trial protocol. Of those five, three had received tramadol and two had received amitriptyline. […] A further eight patients are displaying solid therapeutic responses and there have been three drop-outs. Information on therapeutic responses of the first 12 patients is summarised below.

| SMILES | Ham-D change (17-item Ham-D score) | Ham-D change (by penultimate visit) (17-item Ham-D score) | Ham-D change (by visit 4 of 7) (17-item Ham-D score, baseline to value by visit 4 of 7, individual MDD patient) | Reduction in patient depression, measured using the Hamilton-D rating scale | Drop-out because of AE (human, in vivo) |
| --- | --- | --- | --- | --- | --- |
| COc1cccc(C2(O)CCCCC2CN(C)C)c1 (centres unmarked) [Tramadol] | 23 to 0 | 26 to 0 (by penultimate and 26 to 4 (by penultimate (2×) | 18 to 16 (by visit 4 of 7) | clinically significant reduction in patient depression |  |
| CN(C)CCC=C1c2ccccc2CCc2ccccc21 [Amitriptyline, amitriptyline] | 22 to 0 | 19 to 4 (by penultimate |  | clinically significant reduction in patient depression | Dropped out after Visit 2 |
